# Data published in the supplement of paper PMC10949913.
# What was measured:
# Test in all cases: area under concentration-response curve (viability) (AUC (a.u.)); higher = less active
# Conditions in all cases: 48 h
# CU-ACC1 = system: CU-ACC1
# How it was run: (§1)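 Three adrenocortical carcinoma cell lines were seeded at 500–1,000 cells/well in 5 µL medium in 1,536-well plates. 23 nL of each MIPE 5.0 library compound was added at 11 concentrations. After 48 h (per the protocol name), CellTiter-Glo was added for 15 minutes at room temperature and luminescence was read. Signals were normalised per plate to vehicle and empty-well controls. AC50 and area under the curve came from fitted concentration-response curves, keeping only inhibitory or non-responding curve classes.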
# CU-ACC2 = system: CU-ACC2
# How it was run: as §1
# NCI-H295R = system: NCI-H295R
# How it was run: as §1
compound,measurement,setting,value
CC(C)CC(=O)N[C@H](C(=O)N[C@H](C(=O)N[C@@H](CC(C)C)[C@@H](O)CC(=O)N[C@@H](C)C(=O)N[C@@H](CC(C)C)[C@@H](O)CC(=O)O)C(C)C)C(C)C,area under concentration-response curve,CU-ACC1,537
same,area under concentration-response curve,CU-ACC2,538
same,area under concentration-response curve,NCI-H295R,485
CCOC(=O)Nc1ccc(NCc2ccc(F)cc2)nc1N,area under concentration-response curve,CU-ACC1,446
same,area under concentration-response curve,CU-ACC2,439
same,area under concentration-response curve,NCI-H295R,504
CC(C)(CNC(=O)c1cccc(-c2noc(C(F)(F)F)n2)c1)c1coc(-c2ccccc2)n1,area under concentration-response curve,CU-ACC1,558
same,area under concentration-response curve,CU-ACC2,585
same,area under concentration-response curve,NCI-H295R,506
COc1cc2c(cc1-c1c(C)noc1C)ncc1[nH]c(=O)n([C@H](C)c3ccccn3)c12,area under concentration-response curve,CU-ACC1,490
same,area under concentration-response curve,CU-ACC2,515
same,area under concentration-response curve,NCI-H295R,459
N[C@@H]1CONC1=O,area under concentration-response curve,CU-ACC1,533
same,area under concentration-response curve,CU-ACC2,497
same,area under concentration-response curve,NCI-H295R,559
CC(C)(C)C#Cc1cc(N(C(=O)[C@H]2CC[C@H](C)CC2)[C@H]2CC[C@@H](O)CC2)c(C(=O)O)s1,area under concentration-response curve,CU-ACC1,497
same,area under concentration-response curve,CU-ACC2,478
same,area under concentration-response curve,NCI-H295R,497
CO[C@H]1C[C@@H]2CC[C@@H](C)[C@@](O)(O2)C(=O)C(=O)N2CCCC[C@H]2C(=O)O[C@H]([C@H](C)C[C@@H]2CC[C@@H](OC(=O)C(C)(CO)CO)[C@H](OC)C2)CC(=O)[C@H](C)/C=C(\C)[C@@H](O)[C@@H](OC)C(=O)[C@H](C)C[C@H](C)/C=C/C=C/C=C/1C,area under concentration-response curve,CU-ACC1,488
same,area under concentration-response curve,CU-ACC2,483
same,area under concentration-response curve,NCI-H295R,530
C=C[C@H]1CN2CCC1C[C@@H]2[C@@H](O)c1ccnc2ccccc12 (stereo partly specified),area under concentration-response curve,CU-ACC1,455
same,area under concentration-response curve,CU-ACC2,522
same,area under concentration-response curve,NCI-H295R,486
CC(C)[C@H](O)C(=O)N[C@@H](C)C(=O)N[C@@H]1C(=O)N(C)CCc2ccccc21,area under concentration-response curve,CU-ACC1,522
same,area under concentration-response curve,CU-ACC2,577
same,area under concentration-response curve,NCI-H295R,575
C[C@](Cc1c[nH]c2ccccc12)(NC(=O)OC1C2CC3CC(C2)CC1C3)C(=O)NC[C@H](NC(=O)CCC(=O)O)c1ccccc1 (stereo partly specified),area under concentration-response curve,CU-ACC1,510
same,area under concentration-response curve,CU-ACC2,582
same,area under concentration-response curve,NCI-H295R,537
COc1cc[nH]c2ncc(C(=O)C(=O)N3CCN(C(=O)c4ccccc4)C[C@H]3C)c1-2,area under concentration-response curve,CU-ACC1,545
same,area under concentration-response curve,CU-ACC2,632
same,area under concentration-response curve,NCI-H295R,560
CC1(C)CCC(=C(\C1)C2=CC=C(Cl)C=C2)/CN3CCN(CC3)C4=CC(=C(C=C4)C(=O)N[S+]([O-])(=O)C5=CC=C(NCC6CCOCC6)C(=C5)[N+]([O-])=O)OC7=CN=C8[NH]C=CC8=C7,area under concentration-response curve,CU-ACC1,511
same,area under concentration-response curve,CU-ACC2,573
same,area under concentration-response curve,NCI-H295R,478
C#Cc1cccc(Nc2ncnc3cc4c(cc23)OCCOCCOCCO4)c1,area under concentration-response curve,CU-ACC1,462
same,area under concentration-response curve,CU-ACC2,599
same,area under concentration-response curve,NCI-H295R,546
NC\1=N\C(=O)N(\C=C1)[C@@H]2CS[C@H](CO)O2,area under concentration-response curve,CU-ACC1,534
same,area under concentration-response curve,CU-ACC2,612
same,area under concentration-response curve,NCI-H295R,569
N[C@@H](Cc1ccc(O)c(O)c1)C(=O)O,area under concentration-response curve,CU-ACC1,503
same,area under concentration-response curve,CU-ACC2,612
same,area under concentration-response curve,NCI-H295R,534
CCCCCOC(=O)NC\1=N\C(=O)N(\C=C1F)[C@@H]2O[C@H](C)[C@@H](O)[C@H]2O,area under concentration-response curve,CU-ACC1,512
same,area under concentration-response curve,CU-ACC2,606
same,area under concentration-response curve,NCI-H295R,559
COC12C(COC(N)=O)\C3=C(/N1CC4C2N4C)C(=O)C(=C(N)/C3=O)\C (stereo unspecified),area under concentration-response curve,CU-ACC1,506
same,area under concentration-response curve,CU-ACC2,544
same,area under concentration-response curve,NCI-H295R,507
CC[C@H](CC[C@@H](C)[C@H]1CC[C@H]2[C@@H]3C\C=C/4C[C@@H](O)CC[C@]4(C)[C@H]3CC[C@]12C)C(C)C,area under concentration-response curve,CU-ACC1,413
same,area under concentration-response curve,CU-ACC2,396
same,area under concentration-response curve,NCI-H295R,421
Cc1cccc(-c2n[nH]cc2-c2ccc3ncccc3n2)n1,area under concentration-response curve,CU-ACC1,468
same,area under concentration-response curve,CU-ACC2,567
same,area under concentration-response curve,NCI-H295R,524
CC(C)(C)[S+](=O)([O-])c1ccc2nccc(Nc3n[nH]c4ccc(F)cc34)c2c1,area under concentration-response curve,CU-ACC1,526
same,area under concentration-response curve,CU-ACC2,627
same,area under concentration-response curve,NCI-H295R,561
C[S+](=O)([O-])c1ccc(-c2nnc(/C=C/c3nnc(-c4ccc(C#N)cc4)o3)n2-c2ccccc2Cl)nc1,area under concentration-response curve,CU-ACC1,537
same,area under concentration-response curve,CU-ACC2,603
same,area under concentration-response curve,NCI-H295R,524
CN1C[C@@H]2c3ccccc3Oc3ccc(Cl)cc3[C@H]2C1,area under concentration-response curve,CU-ACC1,553
same,area under concentration-response curve,CU-ACC2,525
same,area under concentration-response curve,NCI-H295R,554
COc1ccc2[nH]cc(CCNC(C)=O)c2c1,area under concentration-response curve,CU-ACC1,592
same,area under concentration-response curve,CU-ACC2,668
same,area under concentration-response curve,NCI-H295R,578
N#C/C(=C\c1ccc(O)c(O)c1)C(=O)NCc1ccccc1,area under concentration-response curve,CU-ACC1,427
same,area under concentration-response curve,CU-ACC2,605
same,area under concentration-response curve,NCI-H295R,572
CC/1=C(/C(CC(=O)N1)C2=CC=C(C=C2)C(F)(F)F)C(=O)NC3=C(F)C=C4[NH]N=CC4=C3 (stereo unspecified),area under concentration-response curve,CU-ACC1,477
same,area under concentration-response curve,CU-ACC2,560
same,area under concentration-response curve,NCI-H295R,557
Nc1nc(N)c2nc(-c3cccc(O)c3)c(-c3cccc(O)c3)nc2n1,area under concentration-response curve,CU-ACC1,448
same,area under concentration-response curve,CU-ACC2,499
same,area under concentration-response curve,NCI-H295R,483
CC(C)(Oc1ccc(C2CC2(Cl)Cl)cc1)C(=O)O (stereo unspecified),area under concentration-response curve,CU-ACC1,502
same,area under concentration-response curve,CU-ACC2,483
same,area under concentration-response curve,NCI-H295R,526
Cc1noc(-c2ccc(CSCCC(=O)O)cc2)c1NC(=O)OC(C)c1ccccc1Cl (stereo unspecified),area under concentration-response curve,CU-ACC1,469
same,area under concentration-response curve,CU-ACC2,557
same,area under concentration-response curve,NCI-H295R,505
C=CC[N+]1([C@H]2C[C@H]3[C@@H]4CC[C@H]5C[C@H](O)[C@@H](N6CCOCC6)C[C@]5(C)[C@H]4CC[C@]3(C)[C@H]2OC(C)=O)CCCC1,area under concentration-response curve,CU-ACC1,597
same,area under concentration-response curve,CU-ACC2,639
same,area under concentration-response curve,NCI-H295R,610
O=C(Nc1ccccc1)Nc1ccc(-c2ccc(C(=O)[C@@H]3CCC[C@H]3C(=O)O)cc2)cc1,area under concentration-response curve,CU-ACC1,481
same,area under concentration-response curve,CU-ACC2,472
same,area under concentration-response curve,NCI-H295R,441
O=C(Nc1c(Cl)cncc1Cl)c1ccc(OC(F)F)c(OCC2CC2)c1,area under concentration-response curve,CU-ACC1,464
same,area under concentration-response curve,CU-ACC2,556
same,area under concentration-response curve,NCI-H295R,523
Cc1cnc(NC(=O)C2=C(O)c3ccccc3S(=O)(=O)N2C)s1,area under concentration-response curve,CU-ACC1,393
same,area under concentration-response curve,CU-ACC2,409
same,area under concentration-response curve,NCI-H295R,396
C[C@@H]1[C@H](O)[C@@H](C)/C=C/C=C/C=C/C=C/C=C/C=C/C=C/[C@H](O[C@@H]2O[C@H](C)[C@@H](O)[C@H](N)[C@@H]2O)C[C@@H]2O[C@](O)(C[C@@H](O)C[C@@H](O)[C@H](O)CC[C@@H](O)C[C@@H](O)CC(=O)O[C@H]1C)C[C@H](O)[C@H]2C(=O)O,area under concentration-response curve,CU-ACC1,550
same,area under concentration-response curve,CU-ACC2,633
same,area under concentration-response curve,NCI-H295R,595
N#C[C@@H]1C[C@@H]2C[C@@H]2N1C(=O)[C@@H](N)C12CC3CC(CC(O)(C3)C1)C2,area under concentration-response curve,CU-ACC1,500
same,area under concentration-response curve,CU-ACC2,598
same,area under concentration-response curve,NCI-H295R,517
C[C@@H]1CN[C@H]2[C@@H](C)[C@@]\3(CC[C@H]\4[C@@H]5C/C=C6/C[C@@H](O)CC[C@]6(C)[C@H]5CC4=C3C)O[C@@H]2C1,area under concentration-response curve,CU-ACC1,463
same,area under concentration-response curve,CU-ACC2,433
same,area under concentration-response curve,NCI-H295R,511
CC(C)OC(=O)C(C(=O)OC(C)C)=C1S\C=C/S1,area under concentration-response curve,CU-ACC1,517
same,area under concentration-response curve,CU-ACC2,638
same,area under concentration-response curve,NCI-H295R,575
Cn1cc(-c2nc(N[C@@H]3CCCC[C@@H]3N)c(F)c3c2C(=O)NC3)cn1,area under concentration-response curve,CU-ACC1,623
same,area under concentration-response curve,CU-ACC2,719
same,area under concentration-response curve,NCI-H295R,660
